Reference: patent publication US8697382B2, “Method of identifying metallo-β-lactamase-producing bacteria” (Meiji Seika Pharma Co., Ltd., priority 2009, dated 2014)

System: IMP-1-producing Pseudomonas aeruginosa
Assay: Disk diffusion test: β-lactam agent disks placed 20 mm from a central compound (I) disk; growth inhibition zone radius measured
Type: cell-based
Conditions: Muller-Hinton agar, overnight culture at 35° C.; for Ratio = Maximum/Minimum inhibition zone radius (degree of change in radius, A3/B3/C3): change caused by the compound (I) disk; for Inhibition zone radius, Maximum (A2/B2/C2): subzone on the compound (I) (disodium 2,3-diethylmaleate) disk side, subject to the metallo-β-lactamase inhibitor; for Inhibition zone radius, Minimum (A1/B1/C1): subzone on the side opposite to the compound (I) disk, not subject to the metallo-β-lactamase inhibitor
Source text: When the bacteria to be tested are MBL-producing bacteria, the shape of an inhibition zone formed around each β-lactam agent varies depending on the effect of the metallo-β-lactamase inhibitor (compound (I)). In this case, the inhibition zone formed around each β-lactam agent can be divided into two subzones (i.e., an inhibition subzone formed on the side opposite to the compound (I)-containing disk and an inhibition subzone formed on the compound (I)-containing disk side) by measurement along the center lines of the β-lactam agent-containing and compound (I)-containing disks (FIG. 1).
The inhibition subzone formed on the side opposite to the compound (I)-containing disk is not subject to the effect of the metallo-β-lactamase inhibitor. Thus, its radius can be minimized in the whole inhibition zone (e.g., the numerical value obtained here can be defined as “A1”, “B1” and “C1” for the β-lactam agents (A), (B) and (C), respectively (Table 1)). When no inhibition zone is formed, the radius of the disk can be used.
The inhibition subzone formed on the compound (I)-containing disk side is subject to the effect of the metallo-β-lactamase inhibitor. Thus, its radius can be maximized in the whole inhibition zone (e.g., the numerical value obtained here can be defined as “A2”, “B2” and “C2” for the β-lactam agents (A), (B) and (C), respectively (Table 1)). When no inhibition zone is formed, the radius of the disk can be used. Moreover, when the formed inhibition zone is wider than the distance between the disks, the distance from the center of the drug-containing disk to the compound (I)-containing disk can be used (e.g., “A2” in the flow 8 in the flowchart of FIG. 2 represents the distance from the center of the β-lactam agent (A)-containing disk to the compound (I)-containing disk).
The degree of change in the shape of the inhibition zone caused by the effect of the metallo-β-lactamase inhibitor can be measured as the ratio between the minimum and maximum radiuses of the inhibition zone, i.e., the degree of change in radius. For example, it can be calculated by dividing the maximum radius of the inhibition zone by the minimum radius thereof (e.g., this calculated value can be defined as “A3”, “B3”, and “C3”, respectively (Table 1)).
According to the disk diffusion method specified by CLSI, a Muller-Hinton agar medium was coated with a bacterial solution adjusted to McFarland standard turbidity of 0.5. No water droplet of the bacterial solution on the medium surface was confirmed, and round filter papers (diameter: approximately 6 mm) respectively containing 300 μg of a compound (I), 100 μg of biapenem as a drug (A), 100 μg of imipenem as a drug (B), and 300 μg of ceftazidime as a drug (C) were placed thereonto as drug-containing disks. The compound (I) used was a compound represented by the formula (I) wherein both R^1 and R^2 are an ethyl group, and M^1 is a sodium cation (disodium 2,3-diethylmaleate). The compound (I) was placed at the center of the agar medium, while the drugs (A) to (C) were placed such that the center of each disk was 20 mm distant from the center of the compound (I). After overnight culture at 35° C., the minimum and maximum radiuses of a growth inhibition zone around each disk were measured, and the degree of change in radius was calculated according to Table 1. The IMP or VIM MBL-producing bacteria were identified using a decision flow of FIG. 2.
In Example 2, bacteria to be tested were IMP-1-producing Pseudomonas aeruginosa. According to the disk diffusion method specified by CLSI, a Muller-Hinton agar medium was coated with the Pseudomonas aeruginosa, and disks were then placed thereonto.
In FIG. 4, the upper disk contained biapenem (BIPM) (A); the lower right disk contained imipenem (IPM) (B); the lower left disk contained ceftazidime (CAZ) (C); and the central disk was a compound (I)-containing disk. […]

SMILES	Ratio = Maximum/Minimum inhibition zone radius (degree of change in radius, A3/B3/C3)	Inhibition zone radius, Maximum (A2/B2/C2) [mm]	Inhibition zone radius, Minimum (A1/B1/C1) [mm]
C[C@@H](O)[C@H]1C(=O)N2C(C(=O)[O-])=C(SC3Cn4cnc[n+]4C3)[C@H](C)[C@H]12 (stereo partly drawn) [biapenem]	2.9	16.0	5.5
CC(C)(O/N=C(\C(=O)N[C@@H]1C(=O)N2C(C(=O)[O-])=C(C[n+]3ccccc3)CS[C@H]12)c1csc(N)n1)C(=O)O [ceftazidime]	4.1	14.5	3.5
C[C@@H](O)[C@H]1C(=O)N2C(C(=O)O)=C(SCCN=CN)C[C@H]12 [imipenem]	2.2	14.0	6.5
